From the NIST ThermoML archive (doi:10.1016/j.fluid.2019.01.011)
Numbers after ± are expanded uncertainties.

Details: Crystal; DSC

Compound | Triple point temperature [K]
[Cl-].[Cs+] [cesium chloride] | 918 ± 10
[Cl-].[Cl-].[Zn+2] [zinc chloride] | 587 ± 10
